Data set [1] addresses T1, Protein tyrosine phosphatase 1B (human recombinant) (Homo sapiens, UniProt P18031).
T1 construct: purchased Biomol International LP, Plymouth Meeting, Pennsylvania, PA, USA
T1 sequence (P18031 1-435): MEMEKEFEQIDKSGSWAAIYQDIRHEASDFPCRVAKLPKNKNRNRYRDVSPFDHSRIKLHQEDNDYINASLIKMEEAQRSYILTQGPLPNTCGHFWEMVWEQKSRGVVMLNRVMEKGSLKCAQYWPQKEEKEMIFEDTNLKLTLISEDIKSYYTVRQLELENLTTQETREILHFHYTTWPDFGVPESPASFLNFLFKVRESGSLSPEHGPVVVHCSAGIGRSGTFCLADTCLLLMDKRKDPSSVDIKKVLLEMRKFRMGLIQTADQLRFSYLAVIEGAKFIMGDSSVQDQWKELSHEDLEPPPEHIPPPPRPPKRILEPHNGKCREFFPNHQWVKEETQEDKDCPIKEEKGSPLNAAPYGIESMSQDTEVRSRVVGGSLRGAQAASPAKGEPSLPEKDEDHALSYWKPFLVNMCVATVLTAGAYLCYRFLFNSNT
The data set can be described thus: Protein tyrosine phosphatase 1B inhibition assay (p-NPP substrate). Format: biochemical. The following applies: means ± SD of three replicates; read-out: PTP1B IC50. Here is the method:
Protein tyrosine phosphatase 1B (human recombinant), i.e., PTP1B, was purchased from Biomol International LP, Plymouth Meeting, Pennsylvania, PA, USA, and the inhibitory activities of the tested samples were evaluated using the method as described. In a typical procedure, 0.05–0.1 μg of PTP1B (BIOMOL International L.P., Plymouth Meeting, Pennsylvania, PA, USA) and 4 mM p-NPP in a buffer containing 1 mM dithiothreitol, 0.1 M NaCl, 1 mM EDTA, and 50 mM citrate (pH 6.0), with or without test compounds, were added, with 100 μL final volume to each of the 96 wells. After the reaction mixture was incubated at 37 °C for 30 min, 10 M NaOH was added to quench the reaction. PTP1B enzyme activity was determined by the amount of produced p-nitrophenol at 405 nm. The nonenzymatic hydrolysis of the substrate was corrected by measuring the control, which contained no PTP1B enzyme.

The target in another data set is α-glucosidase. The data set can be described thus: α-Glucosidase inhibition assay (pNPG substrate). Format: biochemical. Conditions: means ± SD of three replicates. Here is the method:
The inhibitory activity of α-glucosidase was determined according to the modified method with a readily available enzyme. In a typical procedure, α-glucosidase (0.1 U/mL, Wako) was dissolved in 100 mM sodium phosphate buffer (pH 6.8) and used as an enzyme solution. A total of 1 mM p-Nitrophenyl-α-D-glucopyranoside (pNPG) in the same buffer (pH 6.8) was used as a substrate solution. […] After substrate solution (95 μL) was added, the sample solution was incubated for another 10 min at 37 °C incubator. Enzymatic activity was quantified by measuring absorbance at 405 nm using an enzyme-linked immunosorbent assay (ELISA) microplate reader (D.I Biotech Ltd., Seoul, Korea).

The subject of the next data set is Candida albicans. Also on record: method as in PMID 33971509. Conditions: cited from earlier work.
The subject of a further data set is nitric oxide production. Also on record: method as in PMID 26753624. Conditions: cited from earlier work.
Data set [2] concerns A549 cells. Also on record: method as in PMID 25470278. The following applies: cited from earlier work.
The subject of data set [3] is A549 cells. Details: method as in PMID 25470278. The following applies: applied before 60Co γ-irradiation; cited from earlier work.
The subject of data set [4] is Staphyloccocus aureus (ATCC25923). Also on record: method as in PMID 23651559. Conditions: cited from earlier work.
Data set [5] deals with Staphylococcus epidermidis (ATCC12228). Also on record: method as in PMID 23651559. The following applies: cited from earlier work.
Data set [6] has as its system Bacillus subtilis (ATCC6633). Also on record: method as in PMID 23651559. Conditions: cited from earlier work.
The next data set deals with HepG2. Details: method as in PMID 23651559. Conditions: HepG2, MTT method; cited from earlier work. (In general: Tetrazolium dyes change colour on reduction, which living cells bring about.)
For a further data set, the system named is Hela. Details: method as in PMID 23651559. The following applies: MTT method; cited from earlier work.
In the next data set the test system is BEL7402. Also on record: method as in PMID 23651559. The following applies: BEL7402, MTT method; cited from earlier work.
A further data set has as its system BEL7403. Also on record: method as in PMID 23651559. The following applies: BEL7403, MTT method; cited from earlier work.
Data set [7] has as its system Jurkat T cells clone E6.1. Details: method as in doi:10.5012/bkcs.2010.31.04.1081. The following applies: Jurkat T cells clone E6.1, MTT method; cited from earlier work.
Data set [8] has as its system experimental liver cancer cells in rats. Details: method as in ref 32 = [32]; 32. Bai J.W. Zhang Y. Yang M.J. Effects of schinifoline on cytoskeleton of experimental hepatoma in rats observed by whole mount cell transmission electron microscopy Beijing Zhongyiyao Daxue Xuebao 2. Conditions: by influencing cytoskeleton; cited from earlier work.
In data set [9] the test system is experimental hepatocarcinogenesis. Details: method as in ref 33 = [33]; 33. Bai J.W. Zhang Y. Wu J. Flow cytometric analysis of the schinifoline inhibition on rat hepatoma cell induced by DEN Beijing Zhongyiyao Daxue Xuebao 1999 22 34 35. The following applies: by inhibiting hepatoma cell's DNA synthesis; cited from earlier work.
For another data set, the system named is aldose reductase. Details: method as in PMID 17498942. Conditions: cited from earlier work.
Another data set deals with sorbitol accumulation. Also on record: method as in PMID 17498942. Conditions: at 100 μM; cited from earlier work.
Data set [10] concerns obese/diabetic KK-Ay mice. Also on record: method as in PMID 24391749. The following applies: cited from earlier work.
For data set [11], the system named is peroxisome proliferator-activated receptors (PPARs). Details: method as in PMID 30827999. The following applies: cited from earlier work.

Here are results for four compounds from article PMC8233831, “On the Inhibitability of Natural Products Isolated from Tetradium ruticarpum towards Tyrosine Phosphatase 1B (PTP1B) and α-Glucosidase (3W37): An In Vitro and In Silico Study” (Molecules, 2021).

Read-outs that look alike come from different tables or passages of the source.

As to `CCCCCCCc1cc(=O)c2ccccc2n1C` [Compound 1, 2-heptyl-1-methylquinolin-4-one], the IC50 (as a rule, the concentration that gives 50% inhibition) turned out to be 24.3 ± 0.8 µM in data set [1] and 92.1 ± 0.8 µM against α-glucosidase. Moreover, the “effect on negative effects of Candida albicans in vivo” value with Candida albicans is listed as “inhibited the negative effects of Candida albicans in vivo”. The “in vitro inhibitory effect on nitric oxide production” value with nitric oxide production is reported as “did not show in vitro inhibitory effect”. The “cytotoxicity on A549 cells IC50” value with A549 cells [2] (6 h treatment) was 33.7 ± 2.4 µg/mL; in the data set with A549 cells [2] (12 h treatment), 21.9 ± 1.9 µg/mL; with A549 cells [2] (24 h treatment) it was 16.8 ± 2.2 µg/mL. Besides, the “radio-sensitivity of A549 cells” value with A549 cells [3] was “enhanced the radio-sensitivity of A549 cells”. Also, the antibacterial activity result in data set [4], in data set [5] and in data set [6] was “no antibacterial activity” each time. In addition, the cytotoxicity entry (in the data set with HepG2; with Hela; in the data set on BEL7402; in the data set on BEL7403; in data set [7]) was “no cytotoxicity” throughout. Moreover, in [8], the “treatment of experimental liver cancer cells in rats” value is given as “can be used to treat experimental liver cancer cells in rats”. For the same compound, the “treatment of experimental hepatocarcinogenesis” value in data set [9] is listed as “can treat experimental hepatocarcinogenesis”.

Turning to `CC(=CCOc1ccc(C=CCO)cc1)CO` [Compound 2, 3-[4-(4-methylhydroxy-2-butenyloxy)-phenyl]-2-propenol], the figures for the IC50 (in data set [1]; at α-glucosidase) were 47.7 ± 1.1 µM and 167.4 ± 1.4 µM, respectively. Also, the “in vitro inhibitory effect on nitric oxide production” value in the data set with nitric oxide production was “did not show in vitro inhibitory effect”.

Consider `CNc1ccccc1C(=O)N1CCc2c([nH]c3ccccc23)C1=O` [rhetsinine], for which, in the data set on aldose reductase, the aldose reductase inhibition entry was “inhibited aldose reductase in a dose-dependent manner”. Further, the “inhibition of sorbitol accumulation” value in the data set on sorbitol accumulation is given as 79.3%.

Turning to evodiamine, the “obesity and insulin resistance” value in data set [10] is “reduced obesity and insulin resistance”. For the same compound, the “activation of PPARs” value in data set [11] was “activate peroxisome proliferator-activated receptors”.
